Results published in patent US9346753B2, “Dithiol mucolytic agents” (PARION SCIENCES, INC., priority 2013, dated 2016).
Structures can show the parent of a compound that is named as a salt.

Assay: DTNB assay: rate of disulfide bond reduction
Type: biochemical
Set-up: unit not given here
Conditions: 2nd order kinetic
Description: DTNB ASSAY: This assay determines the rate which a mucolytic agent can reduce a disulfide bond using 5,5-Dithiobis(2-nitrobenzoic acid). DTNB in various pH buffers and allows comparison of the kinetic rates of reducing agents. First, reducing agent stock solutions (30 mM) were made up in DMSO. Each compound stock solution was diluted, […] in 1 ml 50 mM Tris-HCl buffer, pH 7.5, and then added in a 1:1 volumetric ratio to a solution of 100 mM DTNB in 50 mM Tris-HCl buffer, pH 7.5. Max Abs412 was measured and then utilized to calculate the activity concentration. If the observed activity concentrations differed from expected activity concentrations by more than 5%, the volume was accordingly adjusted to kinetically test the rate in the next step. After having added the reducing agents, diluted in a range of pH buffer solutions (pH 6.0-7.5), to 45 mM DTNB in 50 mM Tris-HCl and measured the Abs412 for 5 min rates were calculated as a 2nd order kinetic.

SMILES: NCCCC[C@@H](N)C(=O)NCCOc1ccc(CS)c(CS)c1 [Compound V, (R)-2,6-diamino-N-(2-(3,4-bis(mercaptomethyl)phenoxy)ethyl)hexanamide Hydrochloride]
- Kinetic Reaction Rates of Reduction of DTNB (pH 6): 1419
- Kinetic Reaction Rates of Reduction of DTNB (pH 6.5): 4568
- Kinetic Reaction Rates of Reduction of DTNB (pH 7): 6192
- Kinetic Reaction Rates of Reduction of DTNB (pH 7.5): 10043

SMILES: N=C(N)NCCOc1ccc(CS)c(CS)c1 [LL, 1-(2-(3,4-bis(mercaptomethyl)phenoxy)ethyl)guanidine]
- Kinetic Reaction Rates of Reduction of DTNB (pH 6): 743
- Kinetic Reaction Rates of Reduction of DTNB (pH 6.5): 2352
- Kinetic Reaction Rates of Reduction of DTNB (pH 7): 4661
- Kinetic Reaction Rates of Reduction of DTNB (pH 7.5): 8241

SMILES: CC(=O)NCCCC[C@H](N)C(=O)NCCOc1ccc(CS)c(CS)c1 [Compound K, (S)-6-acetamido-2-amino-N-(2-(3,4-bis(mercaptomethyl)phenoxy)ethyl)hexanamide]
- Kinetic Reaction Rates of Reduction of DTNB (pH 6): 678
- Kinetic Reaction Rates of Reduction of DTNB (pH 6.5): 1820
- Kinetic Reaction Rates of Reduction of DTNB (pH 7): 3775
- Kinetic Reaction Rates of Reduction of DTNB (pH 7.5): 9143

SMILES: N=C(N)NCCCC[C@@H](N)C(=O)NCCCN(CCCNC(=O)[C@H](N)CCCCNC(=N)N)CCOc1ccc(CS)c(CS)c1 [Z, (2R,2′R)-N,N′-(3,3′-(2-(3,4-bis(mercaptomethyl)phenoxy)ethylazanediyl)bis(propane-3,1-diyl))bis(2-amino-6-guanidinohexanamide)]
- Kinetic Reaction Rates of Reduction of DTNB (pH 6): 7200
- Kinetic Reaction Rates of Reduction of DTNB (pH 6.5): 10420
- Kinetic Reaction Rates of Reduction of DTNB (pH 7): 10631
- Kinetic Reaction Rates of Reduction of DTNB (pH 7.5): 18513

SMILES: O[C@H](CS)[C@H](O)CS (racemic) [DTT, dithiothreitol, reference compound]
- Kinetic Reaction Rates of Reduction of DTNB (pH 6): 69
- Kinetic Reaction Rates of Reduction of DTNB (pH 6.5): 176
- Kinetic Reaction Rates of Reduction of DTNB (pH 7): 382
- Kinetic Reaction Rates of Reduction of DTNB (pH 7.5): 2088

SMILES: CN(C)CCOc1ccc(CS)c(CS)c1 [Q, (4-(2-(dimethylamino)ethoxy)-1,2-phenylene)dimethanethiol hydrochloride]
- Kinetic Reaction Rates of Reduction of DTNB (pH 6): 954
- Kinetic Reaction Rates of Reduction of DTNB (pH 6.5): 2984
- Kinetic Reaction Rates of Reduction of DTNB (pH 7): 6077
- Kinetic Reaction Rates of Reduction of DTNB (pH 7.5): 15927

SMILES: OC[C@@H](O)[C@@H](O)[C@H](O)[C@@H](O)CNCCOc1ccc(CS)c(CS)c1 [Compound O, (2R,3R,4R,5S)-6-(2-(3,4-bis(mercaptomethyl)phenoxy)ethylamino)hexane-1,2,3,4,5-pentaol hydrochloride]
- Kinetic Reaction Rates of Reduction of DTNB (pH 6): 921
- Kinetic Reaction Rates of Reduction of DTNB (pH 6.5): 2500
- Kinetic Reaction Rates of Reduction of DTNB (pH 7): 5412
- Kinetic Reaction Rates of Reduction of DTNB (pH 7.5): 13547

SMILES: OC[C@@H](O)[C@@H](O)[C@H](O)[C@@H](O)CN(CCOc1ccc(CS)c(CS)c1)C[C@H](O)[C@@H](O)[C@H](O)[C@H](O)CO [N, (2R,2′R,3R,3′R,4R,4′R,5S,5'S)-6,6′-(2-(3,4-bis(mercaptomethyl)phenoxy)ethylazanediyl)dihexane-1,2,3,4,5-pentaol hydrochloride]
- Kinetic Reaction Rates of Reduction of DTNB (pH 6): 952
- Kinetic Reaction Rates of Reduction of DTNB (pH 6.5): 2366
- Kinetic Reaction Rates of Reduction of DTNB (pH 7): 4382
- Kinetic Reaction Rates of Reduction of DTNB (pH 7.5): 9532

SMILES: CCCCCCN(CCOc1ccc(CS)c(CS)c1)C[C@H](O)[C@@H](O)[C@H](O)[C@H](O)CO [P, (2R,3R,4R,5S)-6-((2-(3,4-bis(mercaptomethyl)phenoxy)ethyl)(hexyl)amino)hexane-1,2,3,4,5-pentaol hydrochloride]
- Kinetic Reaction Rates of Reduction of DTNB (pH 6): 1018
- Kinetic Reaction Rates of Reduction of DTNB (pH 6.5): 2701
- Kinetic Reaction Rates of Reduction of DTNB (pH 7): 6180
- Kinetic Reaction Rates of Reduction of DTNB (pH 7.5): 13243

SMILES: N=C(N)NCCCC[C@H](N)C(=O)NCCCC[C@H](N)C(=O)NCCOc1cc(CS)c(CS)cc1OCCNC(=O)[C@@H](N)CCCCNC(=O)[C@@H](N)CCCCNC(=N)N [Y, (S,2S,2′S)-N,N′-(2,2′-(4,5-bis(mercaptomethyl)-1,2-phenylene)bis(oxy)bis(ethane-2,1-diyl))bis(2-amino-6-((S)-2-amino-6-guanidinohexanamido)hexanamide)]
- Kinetic Reaction Rates of Reduction of DTNB (pH 6): 8718

SMILES: NCCCC[C@H](N)C(=O)NCCCC[C@H](N)C(=O)NCCOc1cc(CS)c(CS)cc1OCCNC(=O)[C@@H](N)CCCCNC(=O)[C@@H](N)CCCCN [X, (S,2S,2′S)-N,N′-(2,2′-(4,5-bis(mercaptomethyl)-1,2-phenylene)bis(oxy)bis(ethane-2,1-diyl))bis(2-amino-6-((S)-2,6-diaminohexanamido)hexanamide)]
- Kinetic Reaction Rates of Reduction of DTNB (pH 6): 8029

SMILES: N=C(NCCOc1ccc(CS)c(CS)c1)NC(=O)c1nc(Cl)c(N)nc1N [R, 3,5-diamino-N-(N-(2-(3,4-bis(mercaptomethyl)phenoxy)ethyl)carbamimidoyl)-6-chloropyrazine-2-carboxamide hydrochloride]
- Kinetic Reaction Rates of Reduction of DTNB (pH 6): 2901
- Kinetic Reaction Rates of Reduction of DTNB (pH 6.5): 7382
- Kinetic Reaction Rates of Reduction of DTNB (pH 7): 13522
- Kinetic Reaction Rates of Reduction of DTNB (pH 7.5): 16870

SMILES: N=C(N)NCCCC[C@H](N)C(=O)NCCOc1cc(CS)c(CS)cc1OCCNC(=O)[C@@H](N)CCCCNC(=N)N [H, (2S,2′S)-N,N′-(2,2′-(4,5-bis(mercaptomethyl)-1,2-phenylene)bis(oxy)bis(ethane-2,1-diyl))bis(2-amino-6-guanidinohexanamide) Hydrochloride]
- Kinetic Reaction Rates of Reduction of DTNB (pH 6): 6835

SMILES: N=C(N)NCCCC[C@H](N)C(=O)NCCCC[C@H](N)C(=O)NCCCC[C@H](N)C(=O)NCCOc1ccc(CS)c(CS)c1 [U, (S)-2-amino-6-((S)-2-amino-6-((S)-2-amino-6-guanidinohexanamido)hexanamido)-N-(2-(3,4-bis(mercaptomethyl)phenoxy)ethyl)hexanamide Hydrochloride]
- Kinetic Reaction Rates of Reduction of DTNB (pH 6): 5761

SMILES: NCCCC[C@H](N)C(=O)NCCCC[C@H](N)C(=O)NCCCC[C@H](N)C(=O)NCCOc1ccc(CS)c(CS)c1 [T, (S)-2,6-diamino-N-((S)-5-amino-6-((S)-5-amino-6-(2-(3,4-bis(mercaptomethyl)phenoxy)ethylamino)-6-oxohexylamino)-6-oxohexyl)hexanamide]
- Kinetic Reaction Rates of Reduction of DTNB (pH 6): 5144

SMILES: N=C(N)NCCCC[C@H](N)C(=O)NCCCC[C@H](N)C(=O)NCCOc1ccc(CS)c(CS)c1 [E, (S)-2-amino-N-((S)-5-amino-6-(2-(3,4-bis(mercaptomethyl)phenoxy)ethylamino)-6-oxohexyl)-6-guanidinohexanamide Hydrochloride]
- Kinetic Reaction Rates of Reduction of DTNB (pH 6): 5933
- Kinetic Reaction Rates of Reduction of DTNB (pH 6.5): 13718
- Kinetic Reaction Rates of Reduction of DTNB (pH 7): 16393
- Kinetic Reaction Rates of Reduction of DTNB (pH 7.5): 17109

SMILES: CC(C)(C)OC(=O)NCCOc1ccc(CS)c(CS)c1 [I, tert-butyl 2-(3,4-bis(mercaptomethyl)phenoxy)ethylcarbamate]
- Kinetic Reaction Rates of Reduction of DTNB (pH 6): 285
- Kinetic Reaction Rates of Reduction of DTNB (pH 6.5): 745
- Kinetic Reaction Rates of Reduction of DTNB (pH 7): 1916
- Kinetic Reaction Rates of Reduction of DTNB (pH 7.5): 7265

SMILES: NCCCC[C@H](N)C(=O)NCCOc1ccc(CS)c(CS)c1 [L, (S)-2,6-diamino-N-(2-(3,4-bis(mercaptomethyl)phenoxy)ethyl)hexanamide]
- Kinetic Reaction Rates of Reduction of DTNB (pH 6): 1911
- Kinetic Reaction Rates of Reduction of DTNB (pH 6.5): 5565
- Kinetic Reaction Rates of Reduction of DTNB (pH 7): 8847
- Kinetic Reaction Rates of Reduction of DTNB (pH 7.5): 14566

SMILES: N=C(N)NCCCC[C@H](N)C(=O)NCCOc1ccc(CS)c(CS)c1 [C, (S)-2-amino-N-(2-(3,4-bis(mercaptomethyl)phenoxy)ethyl)-6-guanidinohexanamide]
- Kinetic Reaction Rates of Reduction of DTNB (pH 6): 2460
- Kinetic Reaction Rates of Reduction of DTNB (pH 6.5): 7122
- Kinetic Reaction Rates of Reduction of DTNB (pH 7): 12313
- Kinetic Reaction Rates of Reduction of DTNB (pH 7.5): 17317

SMILES: NCCOc1ccc(CS)c(CS)c1 [KK, (4-(2-aminoethoxy)-1,2-phenylene)dimethanethiol]
- Kinetic Reaction Rates of Reduction of DTNB (pH 6): 873
- Kinetic Reaction Rates of Reduction of DTNB (pH 6.5): 2411
- Kinetic Reaction Rates of Reduction of DTNB (pH 7): 5163
- Kinetic Reaction Rates of Reduction of DTNB (pH 7.5): 13896

SMILES: NCCCC[C@H](N)C(=O)NCCCC[C@H](N)C(=O)NCCOc1ccc(CS)c(CS)c1 [S, (S)-2,6-diamino-N-((S)-5-amino-6-(2-(3,4-bis(mercaptomethyl)phenoxy)ethylamino)-6-oxohexyl)hexanamide]
- Kinetic Reaction Rates of Reduction of DTNB (pH 6): 4483
- Kinetic Reaction Rates of Reduction of DTNB (pH 6.5): 10715
- Kinetic Reaction Rates of Reduction of DTNB (pH 7): 13732
- Kinetic Reaction Rates of Reduction of DTNB (pH 7.5): 15469

SMILES: NCCCC[C@H](N)C(=O)NCCOc1cc(CS)c(CS)cc1OCCNC(=O)[C@@H](N)CCCCN [Compound W, (2S,2′S)-N,N′-(2,2′-(4,5-bis(mercaptomethyl)-1,2-phenylene)bis(oxy)bis(ethane-2,1-diyl))bis(2,6-diaminohexanamide) Hydrochloride]
- Kinetic Reaction Rates of Reduction of DTNB (pH 6): 4850

SMILES: N=C(N)NCCCC[C@@H](N)C(=O)NCCOc1ccc(CS)c(CS)c1 [Compound B, (R)-2-amino-N-(2-(3,4-bis(mercaptomethyl)phenoxy)ethyl)-6-guanidinohexanamide Hydrochloride]
- Kinetic Reaction Rates of Reduction of DTNB (pH 6): 1491
